Assay results taken from patent publication US10253010B2, “C-glycoside derivative” (SIHUAN PHARMACEUTICAL HOLDINGS GROUP LTD., priority 2011, dated 2019).
Where two headings read alike, the source gives them in different places.

How the values were obtained:
[1] = Rat in vivo pharmacokinetic assay (IV and PO); parameters: species or system SD rats; conditions: plasma, male SD rat; for half-life: read-out: T1/2 (half-life) (converted); for bioavailability: PO 5 mg/kg versus IV 2 mg/kg, read-out: F % (absolute bioavailability)
Protocol: Rat In Vivo Pharmacokinetic Assay for the Present Compounds
Assay animals: 6-8 weeks aged male SD rats (purchased from Vital River Laboratories), 6 rats per compound, weighing 220-250 g.
Dissolved in an appropriate solvent (5% DMSO+95% (6% HP-β-CD solution)).
Administration: See Table 2
Blood collection: each of about 100 μL whole blood were collected at 0 h, 0.083 h, 0.25 h, 0.5 h, 1 h, 2 h, 4 h, 6 h, 8 h and 24 h. The collected blood samples were centrifuged at 4° C. at 8000 rpm in a low temperature high-speed centrifuge (5415R, Eppendorf) for 6 mins to separate the blood plasm. The separated plasm was preserved at −80° C. in a refrigerator.
20 μL of the plasm was carefully taken out, to which was added 200 μL acetonitrile solution (containing internal standard KBP-1204 50 ng/ml). The plasm was subjected to a vortex at 1500 rpm for 3 mins, and then centrifuged at 12000 rpm for 5 mins. The supernatant was taken and was analyzed with LC-MS/MS (API4000, Applied Biosystems). Equation Absolute bioavailability F %=[AUC]INF(PO)*Dose(IV)/[AUC]INF(IV)*Dose(PO)

[2] = Urine glucose assay in normal rats; type: in vivo, Sprague-Dawley rats; conditions: normal male SD rats, 10 mg/Kg oral, glucose 5 g/kg, 24 h urine; for Urine glucose mass: standardized to 200 g body weight
Protocol: SPF-grade male Sprague-Dawley rats, 6-weeks aged, were used in this urine glucose assay. After the rats were fasted for 15 h, the rats were divided randomly into a blank control group, a model group, a positive drug group and a test drug group according to their body weights. The rats were put into metabolic cages where water was available but food was unavailable. The urines in this 24 hours were collected. Then, the drugs were orally administered (10 mg/Kg) and then the glucose was fed (5 g/kg) to the animals. Then the animals were put into metabolic cages. The rats were supplemented with food one hour after the drug administration and the glucose feeding, and then could freely contact the diets. The urines in this 24 hours were collected and recorded. The collected urines were centrifuged at 3000 rpm for 15 mins. The residues were removed. The supernatants were taken and the urine glucose contents therein were measured.
The urine glucose contents were standardized based on the body weight of 200 g. The data were expressed in average±standard deviation. The resulting values were analyzed with one-way ANOVA, and the comparisons between groups were conducted with one-way ANOVA and Dunnett test, where p<0.05 was considered to have a statistical significance.

[3] = biological target: T1, human SGLT2 (Homo sapiens, UniProt P31639); assay: Inhibition of sodium dependent [14C]-AMG uptake in CHO cells stably expressing human SGLT2; type: cell-based; conditions: for IC50: CHO cells expressing human SGLT2, [14C]-AMG uptake; for Selectivity: SGLT1 IC50 versus SGLT2 IC50
T1 sequence (P31639 1-672): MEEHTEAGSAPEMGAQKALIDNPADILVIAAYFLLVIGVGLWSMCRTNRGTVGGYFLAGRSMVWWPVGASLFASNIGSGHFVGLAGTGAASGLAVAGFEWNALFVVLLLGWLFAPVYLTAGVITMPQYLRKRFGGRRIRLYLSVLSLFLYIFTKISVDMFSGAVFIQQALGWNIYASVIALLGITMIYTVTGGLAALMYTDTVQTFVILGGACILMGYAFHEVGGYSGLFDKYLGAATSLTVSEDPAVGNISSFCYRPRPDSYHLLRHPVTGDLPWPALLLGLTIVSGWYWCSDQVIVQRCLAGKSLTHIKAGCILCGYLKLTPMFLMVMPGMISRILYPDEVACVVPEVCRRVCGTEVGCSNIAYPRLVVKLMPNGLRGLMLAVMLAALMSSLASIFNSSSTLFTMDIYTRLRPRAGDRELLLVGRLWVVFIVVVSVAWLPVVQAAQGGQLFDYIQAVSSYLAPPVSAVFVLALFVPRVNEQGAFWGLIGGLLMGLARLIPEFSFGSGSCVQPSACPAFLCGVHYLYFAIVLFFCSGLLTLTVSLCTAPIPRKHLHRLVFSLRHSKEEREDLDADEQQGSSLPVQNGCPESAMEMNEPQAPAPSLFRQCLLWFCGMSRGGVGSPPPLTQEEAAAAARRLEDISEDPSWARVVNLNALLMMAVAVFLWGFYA
Protocol: (§1) In the in vitro evaluation method according to the present invention, the human SGLT2 and SGLT1 sequences were transfected to Chinese hamster ovary cells to express stably. By measuring inhibition of the sodium dependent adsorption of [^14C]-labeled […]-D-glucopyranoside (AMG) into the cells, the half-inhibition concentration IC50 was determined.
(§2) Buffer A (KRH-Na+): 120 mM NaCl, 4.7 mM KCl, 1.2 mM MgCl2, 2.2 mM CaCl2, 10 mM HEPES (PH 7.4 with 1 mM Tris).
(§3) Buffer A− (KRH-NMG): 120 mM NMG, 4.7 mM KCl, 1.2 mM MgCl2, 2.2 mM CaCl2, 10 mM HEPES (PH 7.4 with 1 mM Tris).
(§4) Buffer D: 120 mM NaCl, 4.7 mM KCl, 1.2 mM MgCl2, 2.2 mM CaCl2, 10 mM HEPES, 0.5 mM phlorizin (PH 7.4 with 1 mM Tris).
(§5) Assay method: Human SGLT2 and SGLT1 sequences were stably expressed in the CHO cells. The cell culture was conducted in a 96-well plate for 12 hr. The plate was washed with KRH-Na+ (Buffer A) or KRH-NMG (Buffer A−) buffering solution for three times, 200 μL/well. Then the plate was washed with a buffering solution containing Buffer A or Buffer A− plus [^14C]-AMG (10 μCi/mL), 100 μL/well. The cell culture was conducted at 37° C. for 1 h. Then, 100 μL of ice pre-cooled buffering solution (Buffer D) was added to terminate the assay. The plate was washed for 5 times. Then 100 mM NaOH solution was added, 20 μL/well, and the centrifugation at 600 rpm was conducted for 5 mins. Then Microscint 40 solution was added, 80 μl/well, and the centrifugation at 600 rpm was conducted for 5 mins. Finally, the radioactivity of [^14C]-AMG was detected with MicroBeta Trilux (purchased from PerkinElmer Co. Ltd.) according to the scintillation counting method, and the half-inhibition concentration IC50 was calculated.
(§6) The above assays were entrusted to Shanghai ChemPartner Co. Ltd.

[4] = biological target: T2, human SGLT1 (Homo sapiens, UniProt P13866); assay: Inhibition of sodium dependent [14C]-AMG uptake in CHO cells stably expressing human SGLT1; type: cell-based; conditions: CHO cells expressing human SGLT1, [14C]-AMG uptake
T2 sequence (P13866 1-664): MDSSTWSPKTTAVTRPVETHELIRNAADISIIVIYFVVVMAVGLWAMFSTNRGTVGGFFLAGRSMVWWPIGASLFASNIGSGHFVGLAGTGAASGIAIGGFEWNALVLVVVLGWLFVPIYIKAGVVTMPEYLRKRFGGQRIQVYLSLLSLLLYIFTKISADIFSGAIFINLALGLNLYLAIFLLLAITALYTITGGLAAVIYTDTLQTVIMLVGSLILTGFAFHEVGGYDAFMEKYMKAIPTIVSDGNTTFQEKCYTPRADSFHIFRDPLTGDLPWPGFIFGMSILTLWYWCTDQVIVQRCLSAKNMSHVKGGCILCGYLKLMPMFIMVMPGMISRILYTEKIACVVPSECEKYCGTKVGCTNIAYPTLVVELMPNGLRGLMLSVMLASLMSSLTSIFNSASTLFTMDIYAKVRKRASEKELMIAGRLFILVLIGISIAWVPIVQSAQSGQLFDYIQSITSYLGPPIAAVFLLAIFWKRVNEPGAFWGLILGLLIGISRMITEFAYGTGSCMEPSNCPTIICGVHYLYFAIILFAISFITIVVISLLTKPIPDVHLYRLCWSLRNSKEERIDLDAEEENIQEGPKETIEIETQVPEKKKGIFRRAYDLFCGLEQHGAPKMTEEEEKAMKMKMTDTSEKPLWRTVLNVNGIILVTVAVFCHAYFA
Protocol: as §1, §2, §3, §4, §5, §6

Compound	AUC(0-t) ([1]; IV, 2 mg/kg)	AUC(0-inf) ([1]; IV, 2 mg/kg)	half-life ([1]; IV, 2 mg/kg)	bioavailability [1]	AUC(0-t) ([1]; PO, 5 mg/kg)	AUC(0-inf) ([1]; PO, 5 mg/kg)	half-life ([1]; PO, 5 mg/kg)	Urine volume [2]	Urine glucose mass [2]	IC50 [3]	Selectivity [3]	IC50 [4]
OC[C@H]1O[C@@H](c2ccc(Cl)c(Cc3ccc(O[C@H]4CCOC4)cc3)c2)[C@H](O)[C@@H](O)[C@@H]1O [BI-10773, reference compound]	1090 ± 138 ng·h/mL	1100 ± 142 ng·h/mL	0.7 ± 0.07 h	16.5%	426 ± 116 ng·h/mL	457 ± 114 ng·h/mL	1.33 ± 0.33 h	16.63 mL	866.67 mg/200 g			
OC[C@H]1OC(c2ccc(Cl)c(Cc3ccc(OC4C5COCC54)cc3)c2)[C@H](O)[C@@H](O)[C@@H]1O (some centres unmarked) [Compound 10]	972 ± 164 ng·h/mL	984 ± 167 ng·h/mL	0.88 ± 0.21 h	18.9 ± 6.52%	430 ± 166 ng·h/mL	464 ± 160 ng·h/mL	1.77 ± 0.47 h	16.25 mL	972.99 mg/200 g	3.16 nM	596	1890 nM
OC[C@H]1OC(c2ccc(Cl)c(Cc3ccc(C4CCC5(CCC5)CC4)cc3)c2)[C@H](O)[C@@H](O)[C@@H]1O (some centres unmarked) [Compound 13]	6950 ± 100 ng·h/mL	7010 ± 148 ng·h/mL	3.75 ± 0.6 h	35.9 ± 7.78%	6220 ± 1350 ng·h/mL	6290 ± 1360 ng·h/mL	3.36 ± 0.46 h			3.99 nM	73	29100 nM
OC[C@H]1OC(c2ccc(Cl)c(Cc3ccc(OC4CC5CC5C4)cc3)c2)[C@H](O)[C@@H](O)[C@@H]1O (some centres unmarked) [Compound 4]	12400 ± 732 ng·h/mL	13500 ± 451 ng·h/mL	6.81 ± 0.74 h	87.2%	26300 ± 1790 ng·h/mL	29500 ± 2720 ng·h/mL	7.33 ± 0.96 h	18.50 mL	1197.79 mg/200 g			2400 nM
